Patent US6821999B2 (priority 2001, dated 2004)
Where two headings read alike, the source gives them in different places.

Columns and labels:
Format in all cases: cell-based, Staphylococcus aureus
S. aureus (MN8) = settings: for TSST-1 produced compared to the control: S. aureus MN8, in the presence of the compound
S. aureus FRI-1169 = settings: S. aureus FRI-1169, in the presence of triclosan
S. aureus FRI-1187 = settings: S. aureus FRI-1187, in the presence of triclosan

| SMILES | Reduction of Toxin (%) (S. aureus (MN8)) | reduced the amount of toxin produced (S. aureus (MN8)) | TSST-1 produced compared to the control (S. aureus (MN8)) | Reduction of Toxin (%) (S. aureus (MN8); S. aureus MN8, test compound 2 μg/mL, 24 h, vs methanol control) | Reduction of Toxin (%) (S. aureus (MN8); S. aureus MN8, test compound 0.01 μg/mL, 24 h, vs methanol control) | TSST-1 produced compared to the control (S. aureus FRI-1169) | TSST-1 produced compared to the control (S. aureus FRI-1187) |
| --- | --- | --- | --- | --- | --- | --- | --- |
| Oc1ccc(Cc2ccccc2)cc1 [4-Hydroxydiphenyl-methane, 4-hydroxydiphenyl methane] | 24% | about 24% |  |  |  |  |  |
| Oc1c(Cl)cc(Cl)c(Cl)c1Cc1c(O)c(Cl)cc(Cl)c1Cl [Hexachlorophene, hexachlorophene] |  |  | significantly less | 68% |  |  |  |
| Oc1cc(Cl)ccc1Oc1ccc(Cl)cc1Cl [Triclosan, triclosan] |  |  | significantly less |  | 88% | produced less TSST-1 | produced less TSST-1 |
